Biological target: T1, TOP1 (Homo sapiens, UniProt P11387)
T1 construct: endogenous in cells; host or cells: ZR-75-1 and its shRNA clones
T1 sequence (P11387 1-765): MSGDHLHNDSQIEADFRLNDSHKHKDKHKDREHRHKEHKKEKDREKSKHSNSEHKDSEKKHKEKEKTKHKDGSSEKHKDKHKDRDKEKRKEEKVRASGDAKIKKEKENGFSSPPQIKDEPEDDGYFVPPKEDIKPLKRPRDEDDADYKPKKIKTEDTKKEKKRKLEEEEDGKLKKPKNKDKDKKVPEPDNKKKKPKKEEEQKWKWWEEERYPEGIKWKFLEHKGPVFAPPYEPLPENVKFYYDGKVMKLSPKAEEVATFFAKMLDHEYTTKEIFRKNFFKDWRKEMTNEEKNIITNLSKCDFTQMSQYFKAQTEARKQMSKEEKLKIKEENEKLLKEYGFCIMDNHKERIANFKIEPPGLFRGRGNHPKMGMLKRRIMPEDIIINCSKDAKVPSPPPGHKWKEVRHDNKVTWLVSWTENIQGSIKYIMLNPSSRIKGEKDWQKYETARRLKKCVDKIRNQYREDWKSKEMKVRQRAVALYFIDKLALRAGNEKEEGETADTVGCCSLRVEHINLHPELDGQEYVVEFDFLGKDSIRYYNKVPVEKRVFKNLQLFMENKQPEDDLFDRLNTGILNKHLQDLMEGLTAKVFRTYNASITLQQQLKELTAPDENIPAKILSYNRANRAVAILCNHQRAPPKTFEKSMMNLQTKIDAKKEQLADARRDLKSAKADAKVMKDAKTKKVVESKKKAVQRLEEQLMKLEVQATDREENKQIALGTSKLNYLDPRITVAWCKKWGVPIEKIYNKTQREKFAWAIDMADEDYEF
Experiment: Immunoblotting assay for CPT-induced TOP1 degradation
Type: cell-based
Conditions: CPT 25 μM
Experimental: Band depletion assay for TOP1 cleavage complexes. Cells (106/sample) are treated with CPT (25 μM in 1% DMSO) for various times at 37° C. Cells are then lysed with 0.2 N NaOH containing 2 mM EDTA as described previously (14). Cell lysates are then neutralized with 1/10 volume of a solution containing 10% NP-40, 1 M Tris (pH 7.4), 0.1 M MgCl2, 0.1 M CaCl2, 10 mM dithiothreitol, 1 mM EGTA, and a mixture of peptide protease inhibitors (100 μg/ml each of leupeptin, pepstatin, and aprotinin), followed by the addition of another 1/10 volume of 2 N HCl. Reactions are terminated by the addition of SDS-PAGE sample buffer. Immunoblotting analysis of cell lysates is carried out using anti-Scl-70 antibody from scleroderma patients as described above.
Immunoblotting assay for CPT-induced TOP1 degradation. Cells are prepared for immunoblotting as described above with two modifications. First, cells are incubated in CPT-free medium for 30 min prior to lysis (to reverse TOP1 cleavage complexes and to de-conjugate TOP1-ubiquitin and TOP1-UBL conjugates). Second, neutralized cell lysates are incubated with Staphylococcus aureus nuclease S7 (60 U/reaction) for 20 min on ice (to release TOP1 from residual TOP1-DNA covalent complexes) prior to termination with SDS-PAGE sample buffer.
Example No. 3. […] Panel A, Reduced ISG15 expression in ZR-75-1 cells expressing ISG15 shRNA. Cell lysates of ZR-75-1 clones expressing either control shRNA (lane #1) or ISG15 shRNA (lanes #2) are analyzed by 15% SDS-PAGE. Western blotting analysis is performed using anti-ISG15 antisera (upper panel). […] Panel B, CPT sensitivity. Clonogenic survival assay is carried out as described in Materials and Methods. Colonogenic survival curves of a ZR-75-1 clone expressing control shRNA and ISG15 shRNA after CPT treatment is shown. Mean±SD values from at least two experiments are presented. Panel C, CPT-induced TOP1 down-regulation. ZR-75-1 cells stably transfected with control shRNA (lanes 1-4) or ISG15 shRNA (lanes #5-8) (10^6 cells/sample) are treated with either DMSO (lanes #1 and 5) or CPT (25 μM in 1% DMSO) (lanes #2-4 and 6-8) for various times at 37° C. Subsequently, cells are placed in fresh CPT-free media for 30 min to reverse cleavable complexes. Cell lysis and immunoblotting using anti-hTOP1 antisera are carried out as described in FIG. 1 (upper panels).
Example No. 4. […] Panel A, the reduced UbcH8 protein level in ZR-75-1 cells expressing UbcH8 shRNA. Cell lysates prepared from ZR-75-1 clones expressing either control shRNA (lane #1) or UbcH8 shRNA (lanes #2 and 3, from two independent clones), and the purified UbcH8 protein (lane #4) are analyzed by 15% SDS-PAGE. Western blotting analysis is performed using anti-UbcH8 antibody (Abeam). […] Panel B, UbcH8 shRNA decreases ISG15 conjugation in ZR-75-1 cells. Cell lysates prepared from ZR-75-1 clones expressing either control shRNA (lane #1) or UbcH8 shRNA (lanes #2 and 3, two independent clones), and the purified UbcH8 protein (lane #4) are analyzed by 15% SDS-PAGE. Western blotting analysis is performed using anti-ISG15 antibody. The non-specific bands are due to the crossreactivity of the ISG15 antibody to bovine serum albumin. Panel C, knocking down UbcH8 confers CPT resistance. ZR-75-1 clones expressing control shRNA and UbcH8 shRNA (two independent clones) are treated with CPT and cell survival is measured as described in Example 3. Panels D-F, CPT-induced TOP1 down-regulation is […] in ZR-75-1 cells expressing UbcH8 shRNA. Clonal cells of ZR-75-1 expressing control (panel D) or UbcH8 shRNA (panels E and F, representing two independent clones) (10^6/sample) are treated with either DMSO (lanes #1, 5, and 9) or CPT (25 μM in 1% DMSO) (lanes #2-4, 6-8, and 10-12) for various times at 37° C. Cells are then placed in fresh CPT-free media for 30 min to reverse cleavage complexes. Cell lysis and immunoblotting using anti-hTOP1 antibody are carried out as described in Example 1.

CC[C@@]1(O)C(=O)OCc2c1cc1n(c2=O)Cc2cc3ccccc3nc2-1 [CPT, camptothecin]
TOP1 down-regulation (MCF7/RC cells): increased | TOP1 down-regulation (ZR/ISG15-shRNA1 cells, 2 hrs): about 50% | degradation of TOP1 (ZR/UbcH8-shRNA1 cells, 2 hrs): about 50% | degradation of TOP1 (ZR/UbcH8-shRNA2 cells, 2 hrs): about 50% | TOP1 down-regulation (ZR/control-shRNA1 cells): minimal | TOP1 down-regulation (ZR/control-shRNA2 cells): minimal | TOP1 down-regulation (parental MCF7 cells): minimal

From patent publication US20100111874A1, “METHOD OF CANCER DETECTION AND TREATMENT” (University of Medicine and Dentistry of New Jresey, priority 2007, published 2010)
